According to US20230255205A1, “HERBICIDAL HETEROCYCLIC DERIVATIVES” (MoA Technology Limited, priority 2020, published 2023):

Tests used:
Assay type in all cases: in vivo
[1] = tested on: Echinochloa crus-galli (ECHCG); experiment: Pre-emergence herbicidal test, % visual injury; details: 336 h, rate 1000 g/ha, 14±1 days post-emergence in untreated plots
Protocol: (§1) Pre-emergence testing was also performed using the same test species grown in a sandy loam soil mixture, Lolium multiflorum (LOLMU), Amaranthus retroflexus (AMARE), Echinochloa crus-galli (ECHCG), Veronica persica (VERPE).
(§2) After sowing, at growth stage BBCH 00-07 (pre-emergence), the plants are sprayed with an aqueous spray solution derived from the formulation of the technical active ingredient in acetone/water (50:50) solution containing 0.5% Tween 20 (polyoxyethlyene sorbitan monolaureate, GAS RN 9005-64-5). The test compounds are applied at the required […] concentration of active ingredient in g/ha. The test plants are then grown in a glasshouse under controlled environmental conditions and watered regularly as required. After 14±1 days post-emergence in untreated plots (for the pre-emergence test), the test is evaluated by assessing the percentage damage caused to the plants in comparison with the untreated plots. The biological activities for pre-emergence testing are shown below (Table 4) in the following table as a % visual injury.

Veronica persica (VERPE) [2] = experiment: Pre-emergence herbicidal test, % visual injury; details: 336 h, rate 1000 g/ha, 14±1 days post-emergence in untreated plots
Protocol: as §1, §2

[3] = tested on: Lolium multiflorum (LOLMU); experiment: Pre-emergence herbicidal test, % visual injury; details: 336 h, rate 1000 g/ha, 14±1 days post-emergence in untreated plots
Protocol: as §1, §2

[4] = tested on: Echinochloa crus-galli (ECHCG); experiment: Post-emergence herbicidal test, % visual injury; details: 336 h, 14±1 days post application; for pest or weed control at 500 g/ha: rate 500 g/ha; for pest or weed control at 1000 g/ha: rate 1000 g/ha; for pest or weed control at 250 g/ha: rate 250 g/ha
Protocol: (§3) Seeds of a variety of test species are grown in a sandy loam soil mixture, Lolium multiflorum (LOLMU), Amaranthus retroflexus (AMARE), Echinochloa crus-galli (ECHCG), Veronica persica (VERPE).
(§4) After sowing, at growth stage BBCH 12-14 (post-emergence), the plants are sprayed with an aqueous spray solution derived from the formulation of the technical active ingredient in acetone/water (50:50) solution containing 0.5% Tween 20 (polyoxyethlyene sorbitan monolaureate, CAS RN 9005-64-5). The test compounds are applied at the required concentration of active ingredient in g/ha. The test plants are then grown in a glasshouse under controlled environmental conditions and watered regularly as required. After 14±1 days post application (for post-emergence test), the test is evaluated by assessing the percentage damage caused to the plants in comparison with the untreated plots. The biological activities for post-emergence testing are shown below (Table 3) as a % visual injury.

Veronica persica (VERPE) [5] = experiment: Post-emergence herbicidal test, % visual injury; details: 336 h, 14±1 days post application; for pest or weed control at 500 g/ha: rate 500 g/ha; for pest or weed control at 1000 g/ha: rate 1000 g/ha; for pest or weed control at 250 g/ha: rate 250 g/ha
Protocol: as §3, §4

[6] = tested on: Lolium multiflorum (LOLMU); experiment: Post-emergence herbicidal test, % visual injury; details: 336 h, 14±1 days post application; for pest or weed control at 500 g/ha: rate 500 g/ha; for pest or weed control at 1000 g/ha: rate 1000 g/ha; for pest or weed control at 250 g/ha: rate 250 g/ha
Protocol: as §3, §4

[7] = tested on: Amaranthus retroflexus (AMARE); experiment: Post-emergence herbicidal test, % visual injury; details: 336 h, 14±1 days post application; for pest or weed control at 500 g/ha: rate 500 g/ha; for pest or weed control at 1000 g/ha: rate 1000 g/ha; for pest or weed control at 250 g/ha: rate 250 g/ha
Protocol: as §3, §4

[8] = tested on: Amaranthus retroflexus (AMARE); experiment: Pre-emergence herbicidal test, % visual injury; details: rate 1000 g/ha, 14±1 days post-emergence in untreated plots
Protocol: as §1, §2

[9] = tested on: Echinochloa crus-galli (ECHCG); experiment: Comparative tests against non-claimed structural analogues, % visual injury; details: rate 125 g/ha
Protocol: (§5) Selected compounds of the invention were also assessed in comparative tests (Table 5) against structural analogues not according to the invention (e.g. a compound containing an imidazole and one containing an oxazole, neither of which fall within the scope of the claimed invention). In each test, compounds were applied at a rate of 125 g/ha. Test 1 compared the efficacy of a compound of the invention (93) with a non-claimed structure which contains an unsubstituted triazole (105). […] Test 2 compared the efficacy of compound 93 with compound 104, which contains an imidazole and is therefore not according to the invention. […] Test 3 compared the efficacy of compound 43, a further compound according to the invention, with compound 103, which contains an oxazole not according to the invention.

Veronica persica (VERPE) [10] = experiment: as above; details: rate 125 g/ha
Protocol: as §5

[11] = tested on: Lolium multiflorum (LOLMU); experiment: as above; details: rate 125 g/ha
Protocol: as §5

[12] = tested on: Amaranthus retroflexus (AMARE); experiment: as above; details: rate 125 g/ha
Protocol: as §5

SMILES	pest or weed control at 1000 g/ha [1] [%]	pest or weed control at 1000 g/ha (Veronica persica (VERPE) [2]) [%]	pest or weed control at 1000 g/ha [3] [%]	pest or weed control at 500 g/ha [4] [%]	pest or weed control at 500 g/ha (Veronica persica (VERPE) [5]) [%]	pest or weed control at 500 g/ha [6] [%]	pest or weed control at 500 g/ha [7] [%]	also measured
Cn1nnnc1NC(=O)COc1ccc(F)cc1Cl [Compound 25]	10	10	0	0	70	70	40	–
Cc1nnc(NC(=O)COc2ccc(F)cc2Cl)o1 [Compound 26]	30	0	50	90	95	50	90	–
O=C(CCCOc1ccc(Cl)cc1Cl)Nc1nnc(C(F)(F)F)[nH]1 [Compound 28, 4-(2,4-dichlorophenoxy)-N-[5-(trifluoromethyl)-4H-1,2,4-triazol-3-yl]butanamide]	0	0	40	10	60	0	70	–
Cc1cc(Cl)ccc1OCCCC(=O)Nc1nnc(C(F)(F)F)[nH]1 [Compound 29]	0	0	20	0	80	60	60	–
O=C(CCCOc1ccc(F)cc1Cl)Nc1nnc(C(F)(F)F)[nH]1 [Compound 30, 4-(2-chloro-4-fluorophenoxy)-N-[5-(trifluoromethyl)-4H-1,2,4-triazol-3-yl]butanamide]	0	0	60	30	60	70	80	–
CC(Oc1ccc(F)cc1Cl)C(=O)Nc1nnc(C(F)(F)F)[nH]1 (stereo not drawn) [Compound 32]	0	5	0	–	–	–	–	–
Cc1cc(Cl)ccc1OCC(=O)Nc1nnc(C(F)(F)F)[nH]1 [Compound 35]	80	0	0	–	–	–	–	AMARE % visual Injury [8]: 20%; pest or weed control at 1000 g/ha [4]: 30%; pest or weed control at 1000 g/ha (Veronica persica (VERPE) [5]): 60%; pest or weed control at 1000 g/ha [6]: 20%; pest or weed control at 1000 g/ha [7]: 80%
O=C(COc1ccc(Cl)cc1Cl)Nc1nnc(C(F)(F)F)[nH]1 [Compound 36]	40	0	0	–	–	–	–	AMARE % visual Injury [8]: 40%; pest or weed control at 1000 g/ha [4]: 30%; pest or weed control at 1000 g/ha (Veronica persica (VERPE) [5]): 98%; pest or weed control at 1000 g/ha [6]: 40%; pest or weed control at 1000 g/ha [7]: 99%
O=C(COc1ccc(F)cc1Cl)Nc1nnc(C(F)(F)F)o1 [Compound 43]	–	–	–	–	–	–	–	ECHCG % visual Injury [9]: 30%; VERPE % visual Injury (Veronica persica (VERPE) [10]): 70%; LOLMU % visual Injury [11]: 50%; AMARE % visual Injury [12]: 70%
Cn1ccc2c(OCC(=O)Nc3nc(C(F)(F)F)n[nH]3)cccc21 [Compound 91]	–	–	–	0	70	0	0	–
O=C(COc1ccccc1-n1cnnc1)Nc1nc(C(F)(F)F)n[nH]1 [Compound 92]	–	–	–	0	70	0	0	–
O=C(COc1ccc(F)cc1Cl)Nc1nnc(C(F)(F)F)[nH]1 [Compound 93]	–	–	–	80	90	70	100	ECHCG % visual Injury [9]: 30%; VERPE % visual Injury (Veronica persica (VERPE) [10]): 80%; LOLMU % visual Injury [11]: 20%; AMARE % visual Injury [12]: 60%
O=C(COc1ccc(Cl)cc1Cl)Nc1nnc(-c2ccc(F)cc2)[nH]1 [Compound 96]	–	–	–	30	90	0	90	–
O=C(COc1ccc(Cl)cc1Cl)Nc1nnc(C(F)(F)F)o1 [Compound 97]	–	–	–	–	–	–	–	pest or weed control at 125 g/ha ([4]; rate 125 g/ha): 0%; pest or weed control at 125 g/ha (Veronica persica (VERPE) [5]; rate 125 g/ha): 100%; pest or weed control at 125 g/ha ([6]; rate 125 g/ha): 0%; pest or weed control at 125 g/ha ([7]; rate 125 g/ha): 100%
CC(Oc1cccc(Cl)c1)C(=O)Nc1nnn[nH]1 (stereo not drawn) [Compound 98]	–	–	–	–	–	–	–	pest or weed control at 250 g/ha [4]: 0%; pest or weed control at 250 g/ha (Veronica persica (VERPE) [5]): 20%; pest or weed control at 250 g/ha [6]: 10%; pest or weed control at 250 g/ha [7]: 0%
COc1nnc(NC(=O)COc2ccc(F)cc2Cl)[nH]1 [Compound 99]	–	–	–	–	–	–	–	pest or weed control at 250 g/ha [4]: 0%; pest or weed control at 250 g/ha (Veronica persica (VERPE) [5]): 50%; pest or weed control at 250 g/ha [6]: 0%; pest or weed control at 250 g/ha [7]: 50%
Cc1cccc(C)c1OCC(=O)Nc1nnc(C(F)(F)F)[nH]1 [Compound 100]	–	–	–	0	20	0	0	–
O=C(COc1ccc(F)cc1Cl)Nc1nnc(-c2cccc3ccccc23)[nH]1 [Compound 101]	–	–	–	70	80	20	100	–
CCn1cnnc1NC(=O)COc1cccc(C(F)(F)F)c1 [Compound 102]	–	–	–	70	7	0	50	–
O=C(COc1ccc(F)cc1Cl)Nc1ncc(C(F)(F)F)o1 [Compound 103]	–	–	–	–	–	–	–	ECHCG % visual Injury [9]: 30%; VERPE % visual Injury (Veronica persica (VERPE) [10]): 50%; LOLMU % visual Injury [11]: 20%; AMARE % visual Injury [12]: 50%
O=C(COc1ccc(F)cc1Cl)Nc1ncc(C(F)(F)F)[nH]1 [Compound 104]	–	–	–	–	–	–	–	ECHCG % visual Injury [9]: 30%; VERPE % visual Injury (Veronica persica (VERPE) [10]): 70%; LOLMU % visual Injury [11]: 10%; AMARE % visual Injury [12]: 40%
O=C(COc1ccc(F)cc1Cl)Nc1nnc[nH]1 [Compound 105]	–	–	–	–	–	–	–	ECHCG % visual Injury [9]: 20%; VERPE % visual Injury (Veronica persica (VERPE) [10]): 40%; LOLMU % visual Injury [11]: 0%; AMARE % visual Injury [12]: 50%
